# Patent publication US10435399B2, “HDAC6 inhibitory heterocyclic compound” (TAKEDA PHARMACEUTICAL COMPANY LIMITED, priority 2017, dated 2019)
# Biological target: T1, HDAC6 enzyme (Homo sapiens, UniProt Q9UBN7)
# T1 construct: transducing full length HDAC6 gene into Sf-9 insect cells; GST; purchased SignalChem; host or cells: Sf-9 insect cells
# T1 sequence (Q9UBN7 1-1215): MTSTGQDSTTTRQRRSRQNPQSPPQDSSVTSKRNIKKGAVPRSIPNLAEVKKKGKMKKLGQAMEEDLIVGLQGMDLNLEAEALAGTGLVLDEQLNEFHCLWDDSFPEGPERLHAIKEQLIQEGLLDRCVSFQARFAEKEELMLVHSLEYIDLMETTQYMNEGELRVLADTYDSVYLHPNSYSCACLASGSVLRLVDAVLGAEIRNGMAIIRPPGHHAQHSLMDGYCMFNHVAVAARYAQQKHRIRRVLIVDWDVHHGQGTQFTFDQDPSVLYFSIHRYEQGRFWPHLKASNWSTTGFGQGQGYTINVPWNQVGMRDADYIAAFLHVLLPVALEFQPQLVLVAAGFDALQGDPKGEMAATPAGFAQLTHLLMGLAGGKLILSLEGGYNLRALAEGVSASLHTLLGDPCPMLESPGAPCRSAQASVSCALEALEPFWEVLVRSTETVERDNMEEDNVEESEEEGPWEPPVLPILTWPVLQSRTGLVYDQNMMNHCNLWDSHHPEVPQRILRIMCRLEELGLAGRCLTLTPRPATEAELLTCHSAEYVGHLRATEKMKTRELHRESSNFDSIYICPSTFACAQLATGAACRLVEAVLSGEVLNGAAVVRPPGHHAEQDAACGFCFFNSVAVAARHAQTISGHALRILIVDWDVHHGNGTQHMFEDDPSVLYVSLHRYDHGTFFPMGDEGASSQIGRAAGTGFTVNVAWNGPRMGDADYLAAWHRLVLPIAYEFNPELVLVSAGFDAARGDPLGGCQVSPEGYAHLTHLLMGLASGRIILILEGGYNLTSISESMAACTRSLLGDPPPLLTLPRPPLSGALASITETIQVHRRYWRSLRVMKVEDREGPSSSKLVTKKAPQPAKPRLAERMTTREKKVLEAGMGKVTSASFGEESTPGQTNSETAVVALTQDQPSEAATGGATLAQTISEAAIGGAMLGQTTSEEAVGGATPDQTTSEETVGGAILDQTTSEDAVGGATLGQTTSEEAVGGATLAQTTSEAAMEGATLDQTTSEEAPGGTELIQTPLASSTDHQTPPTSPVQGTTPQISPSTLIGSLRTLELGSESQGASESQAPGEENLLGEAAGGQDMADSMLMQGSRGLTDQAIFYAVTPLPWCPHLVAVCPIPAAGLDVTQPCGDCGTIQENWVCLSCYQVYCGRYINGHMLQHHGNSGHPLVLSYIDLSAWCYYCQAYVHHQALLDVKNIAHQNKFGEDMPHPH
# Test: HDAC6 enzyme inhibitory activity (HDAC-Glo I/II Assay kit)
# Assay type: biochemical
# Conditions: 10 μM; wells without enzyme = 100% inhibition; read-out: HDAC6 inhibitory rate (%) (10 μM)
# Procedure, shortened: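 Luminescent HDAC-Glo I/II readout after 20 min room-temperature reaction with substrate-developer, following 60 min compound–enzyme preincubation. Enzyme: full-length HDAC6 from Sf-9 cells, GST-purified; buffer 24 mM Tris-HCl pH 7.5, 0.01% Tween-20, glutathione, salts. Wells lacking enzyme define 100% inhibition.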
row,SMILES,inhibition at 10 µM [%]
1,"O=C(N[C@@H]1CCCC[C@H]1N1C(=O)c2ccc(-c3nnc(C(F)F)o3)cc2C1=O)OCc1ccccc1 [Example 142, benzyl ((1R,2R)-2-(5-(5-(difluoromethyl)-1,3,4-oxadiazol-2-yl)-1,3-dioxo-1,3-dihydro-2H-isoindol-2-yl)cyclohexyl)carbamate]",99
2,"O=C1c2cc(-c3nnc(C(F)F)o3)ccc2CN1Cc1ncccc1Cl [Example 143, 2-((3-chloropyridin-2-yl)methyl)-6-(5-(difluoromethyl)-1,3,4-oxadiazol-2-yl)isoindolin-1-one]",95
3,"O=C1c2cc(-c3nnc(C(F)F)o3)ccc2CN1Cc1cncc(C(F)(F)F)c1 [Example 144, 6-(5-(difluoromethyl)-1,3,4-oxadiazol-2-yl)-2-((5-(trifluoromethyl)pyridin-3-yl)methyl)isoindolin-1-one]",97
4,"CS(=O)(=O)c1cccc(CN2Cc3ccc(-c4nnc(C(F)F)o4)cc3C2=O)c1 [Example 145, 6-(5-(difluoromethyl)-1,3,4-oxadiazol-2-yl)-2-(3-(methylsulfonyl)benzyl)isoindolin-1-one]",100
5,"O=C1c2cc(-c3nnc(C(F)F)o3)ccc2CN1Cc1cc(C2CC2)on1 [Example 146, 2-((5-cyclopropyl-1,2-oxazol-3-yl)methyl)-6-(5-(difluoromethyl)-1,3,4-oxadiazol-2-yl)isoindolin-1-one]",94
6,"O=C1c2cc(-c3nnc(C(F)F)o3)ccc2CN1Cc1ncc(F)cc1F [Example 147, 6-(5-(difluoromethyl)-1,3,4-oxadiazol-2-yl)-2-((3,5-difluoropyridin-2-yl)methyl)isoindolin-1-one]",93
7,"CC(C)(C)OC(=O)N[C@@H]1CCCC[C@H]1N1Cc2c(F)cc(-c3nnc(C(F)F)o3)cc2C1=O [Example 148, tert-butyl ((1R,2R)-2-(6-(5-(difluoromethyl)-1,3,4-oxadiazol-2-yl)-4-fluoro-1-oxo-1,3-dihydro-2H-isoindol-2-yl)cyclohexyl)carbamate]",99
8,"O=C1c2cc(-c3nnc(C(F)F)o3)cnc2CN1[C@@H]1CCCC[C@H]1NC(=O)C1(C(F)(F)F)CC1 [Example 149, N-((1R,2R)-2-(3-(5-(difluoromethyl)-1,3,4-oxadiazol-2-yl)-5-oxo-5,7-dihydro-6H-pyrrolo[3,4-b]pyridin-6-yl)cyclohexyl)-1-(trifluoromethyl)cyclopropanecarboxamide]",102
9,"O=C(N[C@@H]1CCCC[C@H]1N1Cc2ncc(-c3nnc(C(F)F)o3)cc2C1=O)OC1CC1 [Example 150, cyclopropyl ((1R,2R)-2-(3-(5-(difluoromethyl)-1,3,4-oxadiazol-2-yl)-5-oxo-5,7-dihydro-6H-pyrrolo[3,4-b]pyridin-6-yl)cyclohexyl)carbamate]",97
10,"O=C1c2cc(-c3nnc(C(F)F)o3)ccc2CN1Cc1ccc(F)cc1 [Example 151, 6-(5-(difluoromethyl)-1,3,4-oxadiazol-2-yl)-2-(4-fluorobenzyl)isoindolin-1-one]",98
11,"CC(=O)N[C@@H]1CCCC[C@H]1N1Cc2c(F)cc(-c3nnc(C(F)F)o3)cc2C1=O [Example 152, N-((1R,2R)-2-(6-(5-(difluoromethyl)-1,3,4-oxadiazol-2-yl)-4-fluoro-1-oxo-1,3-dihydro-2H-isoindol-2-yl)cyclohexyl)acetamide]",99
12,"COC(=O)N[C@@H]1CCCC[C@H]1N1Cc2c(F)cc(-c3nnc(C(F)F)o3)cc2C1=O [Example 153, methyl ((1R,2R)-2-(6-(5-(difluoromethyl)-1,3,4-oxadiazol-2-yl)-4-fluoro-1-oxo-1,3-dihydro-2H-isoindol-2-yl)cyclohexyl)carbamate]",100
13,"CNC(=O)O[C@@H]1CCCC[C@H]1N1Cc2ccc(-c3nnc(C(F)F)o3)cc2C1=O [Example 154, (1R,2R)-2-(6-(5-(difluoromethyl)-1,3,4-oxadiazol-2-yl)-1-oxo-1,3-dihydro-2H-isoindol-2-yl)cyclohexyl methylcarbamate]",98
14,"O=C1c2cc(-c3nnc(C(F)F)o3)cc(F)c2CN1Cc1ccccn1 [Example 155, 6-(5-(difluoromethyl)-1,3,4-oxadiazol-2-yl)-4-fluoro-2-(pyridin-2-ylmethyl)isoindolin-1-one]",95

# The next lines start with the values.
row,inhibition at 10 µM [%],SMILES
1,100,"COc1ccccc1-c1ccccc1N1Cc2ccc(-c3nnc(C(F)F)o3)cc2C1=O [Example 156, 6-(5-(difluoromethyl)-1,3,4-oxadiazol-2-yl)-2-(2′-methoxybiphenyl-2-yl)isoindolin-1-one]"
2,98,"CN1CCN([C@@H]2CCCC[C@H]2N2Cc3ccc(-c4nnc(C(F)F)o4)cc3C2=O)C1=O [Example 157, 6-(5-(difluoromethyl)-1,3,4-oxadiazol-2-yl)-2-((1R,2R)-2-(3-methyl-2-oxoimidazolidin-1-yl)cyclohexyl)isoindolin-1-one]"
3,100,"Cc1cc(-c2ccccc2N2Cc3ccc(-c4nnc(C(F)F)o4)cc3C2=O)n(C)n1 [Example 158, 6-(5-(difluoromethyl)-1,3,4-oxadiazol-2-yl)-2-(2-(1,3-dimethyl-1H-pyrazol-5-yl)phenyl)isoindolin-1-one]"
4,100,"Cc1nn(C)cc1-c1ccccc1N1Cc2ccc(-c3nnc(C(F)F)o3)cc2C1=O [Example 159, 6-(5-(difluoromethyl)-1,3,4-oxadiazol-2-yl)-2-(2-(1,3-dimethyl-1H-pyrazol-4-yl)phenyl)isoindolin-1-one]"
5,101,"Cn1nccc1-c1ccccc1N1Cc2ccc(-c3nnc(C(F)F)o3)cc2C1=O [Example 160, 6-(5-(difluoromethyl)-1,3,4-oxadiazol-2-yl)-2-(2-(1-methyl-1H-pyrazol-5-yl)phenyl)isoindolin-1-one]"
6,99,"COC(=O)N[C@@H]1CCCC[C@H]1N1Cc2ncc(-c3nnc(C(F)F)o3)cc2C1=O [Example 161, methyl ((1R,2R)-2-(3-(5-(difluoromethyl)-1,3,4-oxadiazol-2-yl)-5-oxo-5,7-dihydro-6H-pyrrolo[3,4-b]pyridin-6-yl)cyclohexyl)carbamate]"
7,97,"CC(F)(F)C(=O)N[C@@H]1CCCC[C@H]1N1Cc2ncc(-c3nnc(C(F)F)o3)cc2C1=O [Example 162, N-((1R,2R)-2-(3-(5-(difluoromethyl)-1,3,4-oxadiazol-2-yl)-5-oxo-5,7-dihydro-6H-pyrrolo[3,4-b]pyridin-6-yl)cyclohexyl)-2,2-difluoropropanamide]"
8,98,"O=C(N[C@@H]1CCCC[C@H]1N1Cc2ncc(-c3nnc(C(F)F)o3)cc2C1=O)c1cccc(Cl)c1 [Example 163, 3-chloro-N-((1R,2R)-2-(3-(5-(difluoromethyl)-1,3,4-oxadiazol-2-yl)-5-oxo-5,7-dihydro-6H-pyrrolo[3,4-b]pyridin-6-yl)cyclohexyl)benzamide]"
9,99,"O=C(N[C@@H]1CCCC[C@H]1N1Cc2ncc(-c3nnc(C(F)F)o3)cc2C1=O)c1ccccn1 [Example 164, N-((1R,2R)-2-(3-(5-(difluoromethyl)-1,3,4-oxadiazol-2-yl)-5-oxo-5,7-dihydro-6H-pyrrolo[3,4-b]pyridin-6-yl)cyclohexyl)pyridine-2-carboxamide]"
10,99,"O=C(N[C@@H]1CCCC[C@H]1N1Cc2c(F)cc(-c3nnc(C(F)F)o3)cc2C1=O)C(F)F [Example 165, N-((1R,2R)-2-(6-(5-(difluoromethyl)-1,3,4-oxadiazol-2-yl)-4-fluoro-1-oxo-1,3-dihydro-2H-isoindol-2-yl)cyclohexyl)-2,2-difluoroacetamide]"
11,97,"CCC(=O)N[C@@H]1CCCC[C@H]1N1C(=O)c2ccc(-c3nnc(C(F)F)o3)cc2C1=O [Example 166, N-((1R,2R)-2-(5-(5-(difluoromethyl)-1,3,4-oxadiazol-2-yl)-1,3-dioxo-1,3-dihydro-2H-isoindol-2-yl)cyclohexyl)propanamide]"
